# Patent US8846066B2, “Methods and related compositions for reduction of fat and skin tightening” (The Regents of the University of California, priority 2004, dated 2014)
# Where “and” joins values, the source holds several entries; their conditions need not be identical. Identical values can stand only once.
# What was measured:
# HaCaT cells = assay: Lactate dehydrogenase (LDH) release assay, cell lysis; type: cell-based, human; details: for LDH release (OD 490): 30 min at 37° C.
# Experimental: Cell lysis in response to detergent treatment was determined in HaCaT cells incubated with the reagents at the indicated cell dilutions for 30 min at 37° C. Lysis in cultured cells was measured using a lactate dehydrogenase (LDH) assay and within tissue using calcein, a fluorescent marker retained in cells with intact cell membranes. The LDH assay measures the activity of LDH, which is a cytosolic enzyme released when cells are lysed. Lactate dehydrogenase release was measured by absorbance (at 490 nm) after a 1 hour incubation with the LDH assay as recommended by the manufacturer (CytoTox 96 Non-Radioactive Cytotoxicity Assay, Promega). All studies were performed in triplicate. LDH release is directly proportional to absorbance at 490 nm (OD 490).
# porcine fat tissue = assay: MTS assay in fresh porcine fat specimens; type: cell-based; details: PBF or 5% solutions, 4 hours
# Experimental: To measure cell viability after detergent treatment, HaCaT human keratinocyte cells were cultured in DMEM (Dulbecco's modified Eagle's medium) supplemented with 10% fetal calf serum, penicillin, and streptomycin. […] Cell viability was determined by an absorbance spectrophotometer (at 490 nm) after 4 hour incubation with the assay at 37° C. To determine cell viability in fresh tissue, fat specimens were incubated for 4 hours in 24 well plates with stock reagents and the MTS assay. Tissue specimens were then visualized for color change and the amount of MTS in their supernatants was measured by absorbance (at 490 nm). All studies were performed in triplicate. Absorbance at 490 nm (OD 490) is proportional to the number of living cells in the culture.
# Porcine tissue was obtained immediately after sacrifice, shaved, and placed on ice for a maximum of four hours before use. […] Calcein retention was determined by tissue fluorescence using purple (411 nm) light and visually observing the emitted green (500 nm) light using an emission filters.
# Fresh porcine skin was used to determine if the effects of these detergent substances on cultured cells were similar in tissue. […] The difference in fat cell viability between the solutions was quantified by measuring the absorbance (at 490) of the supernatants collected from the treated fat specimens (FIG. 3b). […]
# [1] = tested on: porcine skin (epidermis, dermis, subcutaneous tissue, muscle); assay: Histology of full thickness porcine skin after injection; details: 0.5 mL stock reagent injected, one hour at 37° C., H&E
# Experimental: Histology was performed by injecting stock reagent solutions (0.5 mL) into full thickness porcine skin at various levels (epidermis, dermis, and subcutaneous tissue) with 1.0 mL syringes and 30-gauge, 0.5 inch needles. Needle depth was visualized along the margin of the porcine tissue with the intent of saturating the target tissue. One hour after incubation with PBS at 37° C., multiple 5.0 mm biopsy specimens were obtained from the injected sites, each condition performed in triplicate. Tissue was fixed in formaldehyde, paraffin-embedded, and stained with hematoxylin-eosin. Specimens were evaluated by a board-certified dermatopathologist who was blinded to the treatment protocol.
# lipomas = assay: Injection of DC solutions into lipomas of patients (Example 4); type: in vivo, human
# Experimental: Patients having lipomas, benign, isolated collections of adipose tissue, were injected with sodium deoxycholate (DC) solutions without phosphatidylcholine directly into the lipoma. […] A lipoma from one patient, injected with 1% DC, was excised after treatment and pathological and histological analysis performed. Within the excised lipoma, necrosis is visible grossly (FIG. 6a) with a well demarcated area of hemorrhage and necrosis on the lateral edge extending into the middle of the lipoma fat which contrasts with the normal lipoma fat which is lighter in color.
# fat deposits = assay: Injection of deoxycholate into facial fat deposits of an HIV lipodystrophy patient; type: in vivo, human; details: 1% deoxycholate, 1 month follow up, both sides
# Experimental: An HIV lipodystrophy patient with symmetrical fat deposits in their face just vental of their master muscle (sort of in their cheeks, like acorns in the mouth of a chipmunk) was injected with 1% deoxycholate. At 1 month follow up, there was a 50% apparent reduction in deposit volume on both sides.
# adipocytes = assay: Adipocyte survival on addition of PC to 4.75% DC; type: cell-based; details: for Average / Adipocytes surviving by adding PC to 4.75% DC: 4.75% DC; for Adipocytes surviving by adding PC to 4.75% DC: single wells
# Experimental: FIG. 9 illustrates survival of adipocytes when phosphatidylcholine is added to 4.75% sodium deoxycholate solution. On y-axis, 1 represents 100% survival. All % concentrations are w/v %. Survival of the cells in the absence of DC and PC is on an average 0.113.
# CHL = assay: Killing by DC after pre-incubation with human lipoma fat, CHL; type: cell-based
# Experimental: (§1) The experiment was performed on a series of immortalized melanocyte cell lines. Resected human lipomas were ground up, and DC-containing media was mixed with the human fat and agitated for 24 hours. The material was centrifuged to pellet insoluble contents. The supernatants were then added on top of cultured melanocytes. Control was the identical DC-containing media not exposed to the fat chunks. Also, fat alone (no media) was added as a control.
# SKmel28 = assay: Killing by DC after pre-incubation with human lipoma fat, SKmel28; type: cell-based
# Experimental: as §1
# [2] = tested on: immortalized melanocyte cell lines; assay: Killing by DC after pre-incubation with human lipoma fat, series of cell lines; type: cell-based; details: 0.1% DC pre-incubated with human lipoma fat
# Experimental: as §1
# But it is evident in this experiment that the presence of the fat limits the killing properties of DC, may be by direct inhibition (like PC) or by sequestration (i.e., into the fat pellet). This can further explain the observation that injection of DC into fat spares the surrounding tissues.
# [3] = DC 0.1% media not exposed to fat
# [4] = single wells, DC 0.1% media not exposed to fat
# [5] = single wells, supernatant of DC 0.1% media agitated 24 hours with human lipoma fat
# [6] = supernatant of DC 0.1% media agitated 24 hours with human lipoma fat
structure (smiles),measurement,setting,value
"C[C@H](CCC(=O)[O-])[C@H]1CC[C@H]2[C@@H]3CC[C@@H]4C[C@H](O)CC[C@]4(C)[C@H]3C[C@H](O)[C@]12C.[Na+] [DC, sodium deoxycholate]",LDH release (OD 490),HaCaT cells; 0.005% dilution,minimal LDH release
same,LDH release (OD 490),HaCaT cells; 0.05% and 0.5%,progressively more LDH released
same,cell lysis compared with PBF,HaCaT cells; cell culture,less cell lysis
same,"cell lysis (LDH release, FIG. 2b)",HaCaT cells; over the tested dilutions,concentration dependent increase in cell lysis
same,"fat cell viability (MTS purple dye, absorbance at 490)",porcine fat tissue,comparable loss of purple dye
same,"histologic changes in epidermis, dermis, adnexal structures",[1],no apparent affect
same,histologic changes in fat,[1],Marked blurring and dissolution of adipocyte cell membranes
same,Size(cm) Post-treatment,"lipomas; Lipoma 5, pre-treatment 2.00 × 1.75, 2 treatments (1% DC)",1.25 cm
same,Size(cm) Post-treatment,"lipomas; Lipoma 6, pre-treatment 2.80, 1 treatment (5% DC)",0.50 cm
same,Size(cm) Post-treatment,"lipomas; Lipoma 7, pre-treatment 1.00, 1 treatment (1% DC)",Imperceptible
same,size of injected lipomas,"lipomas; after at least one treatment, varied concentrations of deoxycholate",reduced in size
same,pathology and histology of excised lipoma,"lipomas; one patient, 1% DC, removed two days after injection",well defined area of hemorrhage and necrotic fat
same,apparent reduction in deposit volume,fat deposits,50%
same,Average,adipocytes; PC 0 (w/v %),0
same,Average,adipocytes; PC 0.01 (w/v %),0
same,Average,adipocytes; PC 0.1 (w/v %),0
same,Average,adipocytes; PC 1 (w/v %),0
same,Average,adipocytes; PC 5 (w/v %),0.009
same,adipolysis of cultured adipocytes,"adipocytes; 4.75% sodium deoxycholate, in vitro",100%
same,Adipocytes surviving by adding PC to 4.75% DC,adipocytes; PC 0 (w/v %),0
same,Adipocytes surviving by adding PC to 4.75% DC,adipocytes; PC 0.01 (w/v %),0
same,Adipocytes surviving by adding PC to 4.75% DC,adipocytes; PC 0.1 (w/v %),0
same,Adipocytes surviving by adding PC to 4.75% DC,adipocytes; PC 1 (w/v %),0
same,"Percentage, DC 0.1%","CHL; Control = 1, DC 0.1% media not exposed to fat",0.098
same,"Percentage, DC 0.1% + fat","CHL; Control = 1, DC 0.1% media pre-incubated with human lipoma fat",0.610
same,"Average, DC 0.1%",CHL; [3],0.065
same,"Actual, DC 0.1%",CHL; [4],0.064 and 0.066
same,"CHL (readings), DC 0.1%",CHL; [4],0.064 and 0.066
same,"Actual, DC 0.1% + fat",CHL; [5],0.402 and 0.426 and 0.378
same,"CHL (readings), DC 0.1% + fat",CHL; [5],0.402 and 0.426 and 0.378
same,"Average, DC 0.1% + fat",CHL; [6],0.402
same,"Percentage, DC 0.1%","SKmel28; Control = 1.000, DC 0.1% media not exposed to fat",0.098
same,"Percentage, DC 0.1% + fat","SKmel28; Control = 1.000, DC 0.1% media pre-incubated with human lipoma fat",0.485
same,"Average, DC 0.1%",SKmel28; [3],0.060
same,"Actual, DC 0.1%",SKmel28; [4],0.061 and 0.060
same,"SKmel28 (readings), DC 0.1%",SKmel28; [4],0.061 and 0.060
same,"Actual, DC 0.1% + fat",SKmel28; [5],0.290 and 0.304 and 0.302
same,"SKmel28 (readings), DC 0.1% + fat",SKmel28; [5],0.290 and 0.304 and 0.302
same,"Average, DC 0.1% + fat",SKmel28; [6],0.299
same,effect of pre-incubation with fat on killing,[2],appears to reduce killing
